Results taken from US6737383B1, “Herbicidal oxadiazolidines” (priority 1999, dated 2004).

How the values were obtained:
[1] = system: pigweed; test: Test B pre/postemergence pigweed; assay type: in vivo, Amaranthus retroflexus; details: Rate 250 g/ha, Postemergence; scale of 0 to 10 where 0 is no effect and 10 is complete control
How it was run: (§1)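 Herbicidal effect was estimated by eye on a ten-point control scale after plants spent twelve to sixteen days in a greenhouse following soil or foliar treatment. Foliar sprays targeted plants at one to four leaves; all doses were formulated in a non-phytotoxic solvent with surfactant.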

[2] = system: rape; test: Test B pre/postemergence rape; assay type: in vivo, Brassica napus
How it was run: as §1

[3] = system: soybean; test: Test B pre/postemergence soybean; assay type: in vivo, Glycine max
How it was run: as §1

[4] = system: sugar beet; test: Test B pre/postemergence sugar beet; assay type: in vivo, Beta vulgaris
How it was run: as §1

[5] = system: velvetleaf; test: Test B pre/postemergence velvetleaf; assay type: in vivo, Abutilon theophrasti
How it was run: as §1

[6] = system: wheat; test: Test B pre/postemergence wheat; assay type: in vivo, Triticum aestivum
How it was run: as §1

[7] = system: wild oat; test: Test B pre/postemergence wild oat; assay type: in vivo, Avena fatua
How it was run: as §1

[8] = system: purple nutsedge; test: Test B pre/postemergence purple nutsedge; assay type: in vivo, Cyperus rotundus; details: Preemergence
How it was run: as §1

[9] = system: smallflower flatsedge; test: Test B flood test smallflower flatsedge; assay type: in vivo, Cyperus difformis
Protocol: (§2) At the same time, these crop and weed species were also treated with postemergence applications of test chemicals formulated in the same manner. Plants ranged in height from 2 to 18 cm (1- to 4-leaf stage) for postemergence treatments. Plant species in the flood test consisted of rice (Oryza sativa), smallflower flatsedge (Cyperus difformis), duck salad (Heteranthera limosa) and bamyardgrass (Echinochloa crus-galli) grown to the 2-leaf stage for testing. Treated plants and controls were maintained in a greenhouse for twelve to sixteen days, after which all species were compared to controls and visually evaluated. Plant response ratings, summarized in Table B, are based on a scale of 0 to 10 where 0 is no effect and 10 is complete control. A dash (−) response means no test result.

[10] = system: duck salad; test: Test B flood test duck salad; assay type: in vivo, Heteranthera limosa
Protocol: as §2

[11] = system: bamyardgrass; test: Test B flood test barnyardgrass; assay type: in vivo, Echinochloa crus-galli
Protocol: as §2

[12] = Postemergence, Rate 62 g/ha, scale of 0 to 10, 0 is no effect, 10 is complete control
[13] = Postemergence, Rate 125 g/ha, scale 0 to 10, 0 is no effect, 10 is complete control
[14] = Postemergence, Rate 500 g/ha, scale 0 to 10, 0 is no effect, 10 is complete control
[15] = Preemergence, Rate 62 g/ha, scale 0 to 10 (0 no effect, 10 complete control)
[16] = Preemergence, Rate 125 g/ha, scale 0 to 10, 0 is no effect, 10 is complete control
[17] = Preemergence, Rate 500 g/ha, scale of 0 to 10 where 0 is no effect and 10 is complete control
[18] = Rate 250 g/ha, Postemergence, scale of 0 to 10 where 0 is no effect and 10 is complete control
[19] = Rate 62 g/ha, flood test species, Pre-emergence, visual evaluation after twelve to sixteen days
[20] = Rate 125 g/ha, under heading Pre-emergence, flood test species, visual evaluation after twelve to sixteen days
[21] = Rate 250 g/ha, Pre-emergence (flood test species), scale 0 to 10, 0 is no effect, 10 is complete control
[22] = Rate 500 g/ha, Pre-emergence section of Table B, 0 to 10 scale (0 no effect, 10 complete control)

For `C=CCCCn1c(=O)on(C(=O)N(c2ccc(Cl)cc2)C(C)C)c1=O` [Compound 546], the “Plant response rating, Redroot pigweed” value [1] was 0, the “Rape plant response rating” value [2, 12] was 0 and the “Rape plant response rating” value [2, 13] was 0. For the same compound, the “Plant response rating, Rape” value [2, 14] was 7, the “Rape plant response rating” value [2, 15] was 0 and the “Rape plant response rating” value [2, 16] was 0. The “Rape plant response rating (0 to 10 scale)” value ([2]; Preemergence, Rate 250 g/ha) was 0, the “Rape plant response rating” value [2, 17] was 0 and the “Plant response rating, Rape” value [2, 18] was 7. For the same compound, the “Soybean plant response rating” value [3, 12] was 1, the “Soybean plant response rating” value [3, 13] was 1 and the “Plant response rating, Soybean” value [3, 14] was 4. The “Soybean plant response rating” value [3, 15] was 0, the “Soybean plant response rating” value [3, 16] was 0 and the “Soybean plant response rating (0 to 10 scale)” value ([3]; Preemergence, Rate 250 g/ha) was 0. The “Soybean plant response rating” value [3, 17] was 0, the “Plant response rating, Soybean” value [3, 18] was 2 and the “Sugarbeets plant response rating” value [4, 12] was 0. The “Sugarbeets plant response rating” value [4, 13] was 0, the “Plant response rating, Sugarbeets” value [4, 14] was 5 and the “Sugarbeets plant response rating” value [4, 15] was 0. The “Sugarbeets plant response rating” value [4, 16] was 0, the “Sugarbeets plant response rating (0 to 10 scale)” value ([4]; Preemergence, Rate 250 g/ha) was 2 and the “Sugarbeets plant response rating” value [4, 17] was 2. For the same compound, the “Plant response rating, Sugarbeets” value [4, 18] was 4, the “Velvetleaf plant response rating” value [5, 12] was 0 and the “Velvetleaf plant response rating” value [5, 13] was 0. The “Plant response rating, Velvetleaf” value [5, 14] was 2, the “Velvetleaf plant response rating” value [5, 15] was 0 and the “Velvetleaf plant response rating” value [5, 16] was 0. For the same compound, the “Velvetleaf plant response rating (0 to 10 scale)” value ([5]; Preemergence, Rate 250 g/ha) was 0, the “Velvetleaf plant response rating” value [5, 17] was 2 and the “Wheat plant response rating” value [6, 12] was 0. For the same compound, the “Wheat plant response rating” value [6, 13] was 0, the “Plant response rating, Wheat” value [6, 14] was 0 and the “Wheat plant response rating” value [6, 15] was 0. The “Wheat plant response rating” value [6, 16] was 0, the “Wheat plant response rating (0 to 10 scale)” value ([6]; Preemergence, Rate 250 g/ha) was 0 and the “Wheat plant response rating” value [6, 17] was 0. For the same compound, the “Plant response rating, Wheat” value [6, 18] was 0, the “Wild oats plant response rating” value [7, 12] was 0 and the “Wild oats plant response rating” value [7, 13] was 0. The “Plant response rating, Wild oats” value [7, 14] was 2, the “Wild oats plant response rating” value [7, 15] was 0 and the “Wild oats plant response rating” value [7, 16] was 0. For the same compound, the “Wild oats plant response rating (0 to 10 scale)” value ([7]; Preemergence, Rate 250 g/ha) was 0, the “Wild oats plant response rating” value [7, 17] was 3 and the “Plant response rating, Wild oats” value [7, 18] was 0. The “Nutsedge plant response rating” value ([8]; Rate 62 g/ha, scale 0 to 10 (0 no effect, 10 complete control)) was 0, the “Nutsedge plant response rating” value ([8]; Rate 125 g/ha, scale 0 to 10, 0 is no effect, 10 is complete control) was 0 and the “Nutsedge plant response rating (0 to 10 scale)” value ([8]; Rate 250 g/ha) was 0. The “Nutsedge plant response rating” value ([8]; Rate 500 g/ha, scale of 0 to 10 where 0 is no effect and 10 is complete control) was 0, the “Plant response rating, S. Flatsedge (0 to 10 scale, 0 is no effect, 10 is complete control)” value [9, 19] was 0 and the “S. Flatsedge plant response rating (0 to 10 scale, 0 is no effect, 10 is complete control)” value [9, 20] was 0. For the same compound, the “S. Flatsedge plant response rating” value [9, 21] was 0, the “S. Flatsedge plant response rating” value [9, 22] was 0 and the “Plant response rating, Ducksalad (0 to 10 scale, 0 is no effect, 10 is complete control)” value [10, 19] was 0. The “Ducksalad plant response rating (0 to 10 scale, 0 is no effect, 10 is complete control)” value [10, 20] was 0, the “Ducksalad plant response rating” value [10, 21] was 0 and the “Ducksalad plant response rating” value [10, 22] was 0. For the same compound, the “Plant response rating, Barnyardgrass (0 to 10 scale, 0 is no effect, 10 is complete control)” value [11, 19] was 0, the “Barnyardgrass plant response rating (0 to 10 scale, 0 is no effect, 10 is complete control)” value [11, 20] was 0 and the “Barnyardgrass plant response rating” value [11, 21] was 0. For the same compound, the “Barnyardgrass plant response rating” value [11, 22] was 0.
